Results reported in ChEMBL document CHEMBL4433256, “Homoharringtonine stabilizes secondary structure of guanine-rich sequence existing in the 5'-untranslated region of Nrf2” (Bioorg Med Chem Lett, 2019).
Active and inactive are the calls of the source.

How the values were obtained:
[1] = Stabilization of ssGQPLEX-delta3,4 DNA lacking third and fourth G blocks (unknown origin) by circular dichroism method
A549 [2] = test: Inhibition of Nuclear factor erythroid 2-related factor 2 5'-untranslated region guanine-rich DNA sequence in human A549 cells assessed as suppression of AKR1B10 gene expression at 10 nM measured up to 48 hrs by RT-PCR analysis; format: cell-based
A549 [3] = test: Inhibition of Nrf2 5'-untranslated region guanine-rich DNA sequence in human A549 cells assessed as potentiation of etoposide-induced cytotoxicity by measuring increase in ROS production at 10 nM after 24 hrs by DCFH-DA based assay; format: cell-based
A549 [4] = test: Inhibition of Nuclear factor erythroid 2-related factor 2 5'-untranslated region guanine-rich DNA sequence in human A549 cells assessed as suppression of AKR1C3 gene expression at 10 nM measured up to 48 hrs by RT-PCR analysis; format: cell-based
A549 [5] = test: Inhibition of Nrf2 5'-untranslated region guanine-rich DNA sequence in human A549 cells assessed as potentiation of etoposide-induced cytotoxicity by measuring increase in apoptosis at 10 nM after 24 hrs by TUNEL assay; format: cell-based
A549 [6] = test: Inhibition of Nuclear factor erythroid 2-related factor 2 5'-untranslated region guanine-rich DNA sequence in human A549 cells assessed as suppression of GCLC gene expression at 10 nM measured up to 48 hrs by RT-PCR analysis; format: cell-based
[7] = Stabilization of ssGQPLEX-delta1,2 DNA lacking first and second G blocks (unknown origin) by circular dichroism method
[8] = Stabilization of ssGQPLEX-G/T-2,4 DNA (unknown origin) by circular dichroism method
A549 [9] = test: Inhibition of Nrf2 5'-untranslated region guanine-rich DNA sequence in human A549 cells assessed as potentiation of etoposide-induced apoptosis by measuring increase cleaved caspase-3 protein level in at 10 nM after 24 hrs by Western blot analysis; format: cell-based
[10] = Stabilization of ssGQPLEX DNA (unknown origin) assessed as increase in the peak of 264 nm wavelength by circular dichroism method
A549 [11] = test: Inhibition of Nrf2 5'-untranslated region guanine-rich DNA sequence in human A549 cells assessed as potentiation of etoposide-induced apoptosis by measuring increase cleaved PARP protein level in at 10 nM after 24 hrs by Western blot analysis; format: cell-based
[12] = Binding affinity to ssGQPLEX DNA (unknown origin) assessed as dissociation constant by isothermal titration calorimetric method
[13] = Stabilization of ssGQPLEX-G/T-1,3 DNA (unknown origin) by circular dichroism method
[14] = Stabilization of ssGQPLEX-G/T-1,2,3,4 DNA by circular dichroism method
A549 [15] = test: Inhibition of Nuclear factor erythroid 2-related factor 2 5'-untranslated region guanine-rich DNA sequence in human A549 cells assessed as reduction in Nrf2 protein level at 10 nM incubated for 12 to […] hrs by Western blot analysis; format: cell-based
A549 [16] = test: Cytotoxicity against human A549 cells at 1 nM to 10 uM after 24 hrs by MTT assay; format: cell-based; settings: a549, 24 h, 0.001 µM
A549 [17] = test: Inhibition of Nuclear factor erythroid 2-related factor 2 5'-untranslated region guanine-rich DNA sequence in human A549 cells assessed as reduction in NRF2 mRNA levels at 10 nM after 12 to 36 hrs by RT-PCR analysis; format: cell-based
[18] = Stabilization of dsGQPLEX DNA (unknown origin) by circular dichroism method
A549 [19] = test: Inhibition of Nrf2 5'-untranslated region guanine-rich DNA sequence in human A549 cells assessed as potentiation of etoposide-induced cytotoxicity by measuring decrease in cell viability at 10 nM after 24 hrs by MTT assay; format: cell-based

COC(=O)C[C@](O)(CCCC(C)(C)O)C(=O)O[C@@H]1C(OC)=C[C@]23CCCN2CCc2cc4c(cc2[C@H]13)OCO4 [OMACETAXINE MEPESUCCINATE]
17 µM: Kd [12]
inactive: Activity [1] | Activity [7] | Activity [8] | Activity [13] | Activity [14] | Activity [18]
active: inhibition (A549 [2]) | inhibition (A549 [3]) | inhibition (A549 [4]) | inhibition (A549 [5]) | inhibition (A549 [6]) | inhibition (A549 [9]) | Activity [10] | inhibition (A549 [11]) | inhibition (A549 [15]) | inhibition (A549 [17]) | inhibition (A549 [19])
Non-Toxic: Activity (A549 [16])
